Test results published in ChEMBL document CHEMBL1151358, “Doridosine, 1-methylisoguanosine, from Anisodoris nobilis; structure, pharmacological properties and synthesis” (1981).

What was measured:
[1] = Inhibition of guinea pig atrial contraction at 5 uM in presence of 100 uM/L theophylline; format: functional, Cavia porcellus, Cardiac atrium
[2] = Inhibition of guinea pig atrial contraction at 5 uM in presence of 10 uM/L theophylline; format: functional, Cavia porcellus, Cardiac atrium
[3] = Inhibition of guinea pig atrial contraction at 14 uM; format: functional; conditions: Cavia porcellus, Cardiac atrium
[4] = Inhibition of guinea pig atrial contraction at 5 uM; format: functional; conditions: Cavia porcellus, Cardiac atrium
[5] = Inhibition of guinea pig atrial contraction at 20 uM in presence of 100 uM/L theophylline; format: functional, Cavia porcellus, Cardiac atrium
[6] = Inhibition of guinea pig atrial contraction at 20 uM in presence of 10 uM/L theophylline; format: functional, Cavia porcellus, Cardiac atrium
[7] = Inhibition of guinea pig atrial contraction at 20 uM; format: functional; conditions: Cavia porcellus, Cardiac atrium

In the case of `Cn1c(=O)[nH]c2c(ncn2[C@@H]2O[C@H](CO)[C@@H](O)[C@H]2O)c1=N`, the “inhibition (INH)” value [1] is reported as 64%, the “inhibition (INH)” value [2] is reported as 83% and the inhibition at 14 µM [3] is reported as 50%. The inhibition at 5 µM [4] was 65%, the “inhibition (INH)” value [5] was 82% and the “inhibition (INH)” value [6] was 95%. For the same compound, the inhibition at 20 µM [7] was 45.2%.
